Experimental data: patent publication US20070004727A1, “Use of compounds for the prevention of drug-induced cell toxicity” (Reception ApS c/o Ostysk Innovation A/S, priority 2003, published 2007)

Tested on: uptake of gentamicin into the mouse kidneys
Test: Gentamicin uptake in mouse kidneys following i.p. administration of the compound
Format: in vivo
Settings: for Effect of the inhibitors on the uptake of gentamicin into the mouse kidneys: 3 mg of inhibitor intraperitoneally in mice, as in Example 1 (FIG. 6), ranked among six inhibitors tested
Protocol: The effect of a compound, 2-[4-(2-aminoethyl)piperazin-1-yl]ethylamine (Aldrich, D2,340-8, lot 06028BO-332), according to the invention was tested in vivo. Gentamicin uptake in mouse kidneys following intraperitoneal (i.p.) administration of the compound was measured.
For normal application of radioactive gentamicin the following was performed: I.p. injection of 50 micrograms per kg of tritiated gentamicin with or without 3 mg of the inhibitor per mouse.
For competition of clinical doses of gentamicin 50 micrograms/kg of tritiated gentamicin plus 5 mg/kg of cold gentamicin (clinical dose) were injected in admixture with 3 mg total of 2-[4-(2-aminoethyl)piperazin-1-yl]ethylamine per mouse. A control received gentamicin only.
In this experiment 3 mg of the inhibitors 3-methylamino-1-(4-methylpiperazino)-2-propanole, 4-piperazinoaniline, piperazin-2-one-HCl, 2-[4-(2-aminoethyl)piperazin-1-yl]ethylamine, piperazine anhydrous, and 0.5 mg of 1-(3-chlorophenyl)piperazine diHCl (m-CPP), respectively, were administered intraperitoneally in mice (see FIG. 6) as described in Example 1. The effect of the inhibitors on the uptake of gentamicin into the mouse kidneys was determined by means of the assay described in Example 1.

Row | SMILES | Effect of the inhibitors on the uptake of gentamicin into the mouse kidneys | Inhibition (of gentamicin uptake in mouse kidneys) compared to the control (i.p., 50 micrograms/kg tritiated gentamicin plus 5 mg/kg cold gentamicin (clinical dose) in admixture with 3 mg total of compound per mouse, control received gentamicin only) [%]
1 | NCCN1CCN(CCN)CC1 [2-[4-(2-aminoethyl)piperazin-1-yl]ethylamine] | strongest gentamicin inhibitors | 40
2 | Cl.O=C1CNCCN1 [piperazin-2-one-HCl] | strongest gentamicin inhibitors | –
3 | C1CNCCN1 [piperazine anhydrous] | strongest gentamicin inhibitors | –
